Results as given in article PMC7926627, “Fine-Tuning the Biological Profile of Multitarget Mitochondriotropic Antioxidants for Neurodegenerative Diseases” (Antioxidants, 2021).
Several values for one entry are separate records, joined by “and”; a condition that tells them apart may be missing. Equal values may be shown once. Read-outs that look alike come from different tables or passages of the source. Marks after values point to notes of the source that are not given here.

Tests used:
[1] = Oxygen radical absorbance capacity (ORAC-FL) assay; conditions: for ORAC-FL Index: relative Trolox equivalent ORAC value
[2] = tested on: differentiated SH-SY5Y cells; experiment: Resazurin reduction assay (cytotoxicity); format: cell-based, human; conditions: 24 h, concentrations up to 100 µM
Experimental: For cytotoxicity studies, differentiated SH-SY5Y cells were incubated with increasing concentrations of the test compounds (0.20–100 µM) for 24 h. Controls were treated with culture media containing 0.1% DMSO. Cell viability was estimated using two different methods: resazurin reduction assay and NR uptake assay. […]
days. The cultures were passaged once a week by trypsinization (0.25 % trypsin/1 mM EDTA).
To avoid phenotypic changes, the cells used for all experiments were taken between 19th and 28th passages. Cells were differentiated as described previously by Fernandes et al.. Briefly, SH-SY5Y cells were seeded onto 96-well plates at a density of 25,000 cells/cm2 in cell culture medium with trans-retinoic acid (RA) (final concentration of 10 µM) and incubated for 3 days at 37 °C in a humidified, 5% CO2−95% air atmosphere. The cell culture medium was then removed and replaced with medium supplemented with 12-O-tetradecanoylphorbol-13-acetate (TPA) (final concentration 80 nM), and cells were incubated for 3 days. Stock solutions of RA (10 mM) and TPA (80 µM) were prepared in DMSO.
1.5.3. Cytotoxicity assays
1.5.3.1. Resazurin reduction assay
Resazurin is a non-fluorescent, non-toxic water-soluble dye able to permeate through cell […]
highly fluorescent resorufin [8, 9]. Since the conversion of resazurin into resorufin occurs mostly in mitochondria, the amount of resorufin produced can be used as indicator of metabolic activity. The quantity of resorufin production is proportional to the number of viable cells in culture and can be quantified fluorometrically or colorimetrically.
Resazurin reduction assay was performed as previously described by Fernandes et al..
Briefly, after the 24 h incubation periods with the test compounds, the cell culture medium was removed and replaced with fresh culture medium with resazurin (10 μg/mL) prepared in cell culture medium. Differentiated SH-SY5Y cells were incubated for 2 h at 37 °C in a humidified 5% CO2−95% air atmosphere. Then, the fluorescence was read in a multiwell microplate reader (PowerWave XS from BioTek Instruments, Vermont, US), using an excitation wavelength of 540 nm and an emission wavelength of 590 nm. The results were expressed as the percentage of resazurin reduction relative to that of the control (non-treated) cells [resazurin reduction (% of […]
1.5.3.2. Neutral red uptake assay
The neutral red (NR) uptake assay is based on the ability of viable cells to incorporate the supravital dye NR and retain it inside the lysosomes. NR uptake assay was performed as previously described by Fernandes et al. Briefly, after the 24 h incubation periods with the test compounds, the cell culture medium was removed and NR solution ([…]) in fresh cell culture medium was added. Differentiated SH-SY5Y cells and Caco-2 cells were incubated for 2 h and 1 h, respectively, at 37 °C in a humidified, 5% CO2−95% air atmosphere. Then, the cell culture medium was removed and replaced by ethanol absolute/distilled water (1:1) with 5 % acetic acid to liberate the dye from the viable cells. The absorbance was measured at 540 nm in a […]

hMAO-A [3] = biological target: T1, hMAO-A (Homo sapiens, UniProt P21397); experiment: hMAO-A inhibition, kynuramine substrate; format: biochemical
T1 construct: purchased Sigma Aldrich; host or cells: insect cells (BTI-TN-5B1-4), baculovirus
T1 sequence (P21397 1-527): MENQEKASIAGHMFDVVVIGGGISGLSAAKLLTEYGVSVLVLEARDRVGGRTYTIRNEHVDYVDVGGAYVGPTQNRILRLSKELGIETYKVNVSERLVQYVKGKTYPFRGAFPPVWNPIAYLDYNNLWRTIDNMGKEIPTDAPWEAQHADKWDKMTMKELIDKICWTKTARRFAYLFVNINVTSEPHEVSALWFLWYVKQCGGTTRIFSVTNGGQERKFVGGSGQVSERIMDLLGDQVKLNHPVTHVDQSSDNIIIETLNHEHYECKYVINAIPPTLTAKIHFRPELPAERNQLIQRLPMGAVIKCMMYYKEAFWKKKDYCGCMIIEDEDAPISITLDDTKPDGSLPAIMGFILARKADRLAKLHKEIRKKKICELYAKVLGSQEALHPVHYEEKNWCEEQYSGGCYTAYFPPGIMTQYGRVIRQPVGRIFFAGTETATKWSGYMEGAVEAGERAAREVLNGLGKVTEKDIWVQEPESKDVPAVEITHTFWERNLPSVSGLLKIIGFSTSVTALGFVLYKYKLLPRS
Experimental: (§1) The inhibitory activity of lipophilic TPP^+ cations on hMAO-A and hMAO-B was studied using an experimental protocol described elsewhere [29, 40]
(§2) Evaluation of human monoamine oxidase (hMAO) inhibitory activity The human monoamine oxidase (hMAO) inhibitory outline was assessed in microsomal MAO isoforms prepared from insect cells (BTI-TN-5B1-4) infected with recombinant baculovirus containing cDNA inserts for hMAO-A or hMAO-B an d by measuring the enzymatic conversion rates of kynuramine into 4-hydroxyquinoline. The appropriate amounts of hMAO-A and hMAO-B were adjusted to obtain, in our experimental conditions, the same maximum
(§3) All assays were performed in sodium phosphate buffer solution 50 mM pH 7.4.
(§4) The compounds under study and reference inhibitors were pre-incubated at 37 °C for 10
(§5) concentration: 2×Km) in 96-well microplates (BRANDplates, pureGradeTM, BRAND GMBH, Wertheim, Germany). Then, the reaction was started with the addition of hMAO-A or hMAO-B.
(§6) Initial velocities were determined spectrophotometrically in a microplate reader (BioTek Synergy HT from BioTek Instruments, Winooski, VT, USA) at 37 °C by measuring the formation of 4-
(§7) The initial velocities, obtained from the linear phase of product formation, were normalized and plotted against the respective inhibitor concentration. IC50 values were obtained from dose-response curves and were expressed as mean ± standard deviation. IC50 values were determined from at least three independent experiments, each performed in triplicate.

hMAO-B [4] = biological target: T2, hMAO-B (Homo sapiens, UniProt P27338); experiment: biochemical; set-up: purchased Sigma Aldrich; host or cells: insect cells (BTI-TN-5B1-4), baculovirus
T2 sequence (P27338 1-520): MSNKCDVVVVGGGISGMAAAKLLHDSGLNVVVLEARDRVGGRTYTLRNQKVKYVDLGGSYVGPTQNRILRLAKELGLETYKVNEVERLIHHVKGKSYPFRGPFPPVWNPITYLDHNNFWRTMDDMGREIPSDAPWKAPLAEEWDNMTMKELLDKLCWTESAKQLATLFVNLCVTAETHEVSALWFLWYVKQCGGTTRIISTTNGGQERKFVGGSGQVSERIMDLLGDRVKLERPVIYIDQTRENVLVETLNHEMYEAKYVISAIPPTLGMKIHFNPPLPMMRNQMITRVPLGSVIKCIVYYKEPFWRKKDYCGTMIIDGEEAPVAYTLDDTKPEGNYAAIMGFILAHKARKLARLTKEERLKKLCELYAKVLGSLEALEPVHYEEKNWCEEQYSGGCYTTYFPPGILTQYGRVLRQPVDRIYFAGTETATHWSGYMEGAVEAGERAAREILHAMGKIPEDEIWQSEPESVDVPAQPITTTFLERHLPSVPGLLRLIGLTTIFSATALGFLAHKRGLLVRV
Experimental: as §1, §2, §3, §4, §5, §6, §7

[5] = biological target: T3, eqBChE (equine butyrylcholinesterase) (Equus caballus, UniProt P81908); set-up: method as in Benfeito et al. [22]; conditions: ref Benfeito et al. [22]; cited from earlier work
T3 construct: butyrylcholinesterase (eqBuChE, E.C. 3.1.1.8, from equine serum); purchased Sigma Aldrich; host or cells: equine serum

[6] = set-up: method as in Teixeira et al. [19],[20]; conditions: ref Teixeira et al. [19],[20]; cited from earlier work
[7] = Chromatographic hydrophobicity index by gradient RP-HPLC at pH 2.3
Experimental: Chromatographic hydrophobicity indexes (CHIs) at pH 2.3 were determined using an experimental protocol described elsewhere [45, 46] and included in the supplementary information.
Evaluation of the chromatographic hydrophobicity index
Chromatographic hydrophobicity indexes (CHIs) values were determined using the
retention times (tR) of samples and a mixture of reference compounds. The data was acquired on
a Shimadzu high-performance liquid chromatograph SPD-M20A system (Shimadzu, Kyoto,
Japan) with a Luna C18 (2) column (Phenomenex, CA, USA) 150×4.6 mm, 5 µm. In CHI
determinations at pH 2.3, mobile phase A was aqueous solution of acetic acid 1 % (v/v) (pH 2.3),
and mobile phase B was acetonitrile. The following gradient program was applied: 1 mL/min
Calibration plots were obtained using a mixture of the following compounds:
paracetamol, theophylline, caffeine, benzimidazole, colchicine, carbamazepine, indole,
propiophenone, butyrophenone, valerophenone, and heptanophenone (Table S1, Figure S2).
hydrophobicity index (CHI) values were calculated as previously described [13, 14].

[8] = tested on: differentiated SH-SY5Y cells; experiment: Neutral red (NR) uptake assay (cytotoxicity); format: cell-based, human; conditions: 24 h, increasing concentrations up to 100 µM
Experimental: To avoid phenotypic changes, the cells used for all experiments were taken between 19th and 28th passages. Cells were differentiated as described previously by Fernandes et al. [6]. Briefly, SH-SY5Y cells were seeded onto 96-well plates at a density of 25,000 cells/cm2 in cell culture medium with trans-retinoic acid (RA) (final concentration of 10 µM) and incubated for 3 days at
The neutral red (NR) uptake assay is based on the ability of viable cells to incorporate the supravital dye NR and retain it inside the lysosomes [11]. NR uptake assay was performed as previously described by Fernandes et al. [12] Briefly, after the 24 h incubation periods with the test compounds, the cell culture medium was removed and NR solution (50 mg/mL) in fresh cell culture medium was added. Differentiated SH-SY5Y cells and Caco-2 cells were incubated for 2
multiwell microplate reader (PowerWave XS from BioTek Instruments). The results were
expressed as the percentage of NR uptake relative to that of the control (non-treated) cells [NR
uptake (% of control)] ± standard error mean (SEM) of at least three independent experiments.
Stock solutions of the test compounds (10 µM) were prepared in DMSO and diluted in

[9] = biological target: T3, eqBChE (equine butyrylcholinesterase); experiment: biochemical
Experimental: (§8) The eeAChE and eqBChE inhibitory activities of the compounds under study were determined following the Ellman’s method [32, 33]
(§9) Substrate solutions (ATCI or BCTI) were prepared in deionized water (conductivity ˂ 0.1 µS.cm-
(§10) Evaluation of eel acetylcholinesterase and equine butyrylcholinesterase inhibitory
(§11) The eeAChE and eqBChE inhibitory activities of the compounds under study were evaluated following the Ellman’s method [1, 2]. Briefly, a mixture containing sodium phosphate buffer, enzyme (final concentration: eeAChE 0.05 U/mL and eeBChE 0.05 U/mL), DTNB (final concentration: 400 µM) and the test compounds/reference inhibitors were preincubated for 5 minutes at 30 °C in a 96-well microplate (BRANDplates, pureGradeTM, BRAND GMBH, Wertheim, Germany). In control experiments, sodium phosphate buffer was used instead of the
(§12) ºC in a microplate reader (BioTek Synergy HT from BioTek Instruments, Winooski, VT, USA).
(§13) The rates of the substrate enzymatic hydrolysis were determined, normalized and plotted against the respective inhibitor concentration. IC50 values were obtained from the dose-response curves
(§14) and were expressed as mean ± standard deviation. IC50 values were determined in at least three
(§15) independent experiments, each performed at least in triplicates.

[10] = biological target: T4, eeAChE (electric eel acetylcholinesterase) (Electrophorus electricus, UniProt O42275); experiment: eeAChE inhibition, Ellman's method; format: biochemical
T4 construct: Eel acetylcholinesterase (eeAChE, E.C. 3.1.1.7, from Electrophorus electricus); purchased Sigma Aldrich
Experimental: as §8, §9, §10, §11, §12, §13, §14, §15

[11] = set-up: method as in Camurri et al. [13]; conditions: standard mixture for calibration; ref Camurri et al. [13]; cited from earlier work
hMAO-A [12] = biological target: T1, hMAO-A; set-up: method as in Chavarria et al. [29]; conditions: read-out: IC50 hMAO-A; ref Chavarria et al. [29]; cited from earlier work
[13] = tested on: differentiated SH-SY5Y cells; conditions: at concentrations up to 50 µM; ref [58]; cited from earlier work
hMAO-B [14] = biological target: T2, hMAO-B; conditions: read-out: IC50 hMAO-B; ref Chavarria et al. [29]; cited from earlier work

T3 sequence (P81908 whole entry): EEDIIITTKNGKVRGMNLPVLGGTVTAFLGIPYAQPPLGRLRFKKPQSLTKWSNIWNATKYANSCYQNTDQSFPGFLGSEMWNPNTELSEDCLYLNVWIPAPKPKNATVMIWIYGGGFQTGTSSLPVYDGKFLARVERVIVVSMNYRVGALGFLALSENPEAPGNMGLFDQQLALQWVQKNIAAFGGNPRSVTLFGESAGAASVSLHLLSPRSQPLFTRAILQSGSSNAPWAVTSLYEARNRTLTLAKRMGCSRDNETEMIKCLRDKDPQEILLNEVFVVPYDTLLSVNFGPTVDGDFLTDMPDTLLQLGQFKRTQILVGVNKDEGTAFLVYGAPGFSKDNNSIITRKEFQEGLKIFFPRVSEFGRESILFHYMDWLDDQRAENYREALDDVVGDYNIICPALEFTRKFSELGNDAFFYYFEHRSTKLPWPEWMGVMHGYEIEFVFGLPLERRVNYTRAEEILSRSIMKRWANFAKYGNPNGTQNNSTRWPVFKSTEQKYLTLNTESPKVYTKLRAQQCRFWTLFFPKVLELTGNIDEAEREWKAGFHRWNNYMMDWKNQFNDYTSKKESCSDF
T4 sequence (O42275 24-633): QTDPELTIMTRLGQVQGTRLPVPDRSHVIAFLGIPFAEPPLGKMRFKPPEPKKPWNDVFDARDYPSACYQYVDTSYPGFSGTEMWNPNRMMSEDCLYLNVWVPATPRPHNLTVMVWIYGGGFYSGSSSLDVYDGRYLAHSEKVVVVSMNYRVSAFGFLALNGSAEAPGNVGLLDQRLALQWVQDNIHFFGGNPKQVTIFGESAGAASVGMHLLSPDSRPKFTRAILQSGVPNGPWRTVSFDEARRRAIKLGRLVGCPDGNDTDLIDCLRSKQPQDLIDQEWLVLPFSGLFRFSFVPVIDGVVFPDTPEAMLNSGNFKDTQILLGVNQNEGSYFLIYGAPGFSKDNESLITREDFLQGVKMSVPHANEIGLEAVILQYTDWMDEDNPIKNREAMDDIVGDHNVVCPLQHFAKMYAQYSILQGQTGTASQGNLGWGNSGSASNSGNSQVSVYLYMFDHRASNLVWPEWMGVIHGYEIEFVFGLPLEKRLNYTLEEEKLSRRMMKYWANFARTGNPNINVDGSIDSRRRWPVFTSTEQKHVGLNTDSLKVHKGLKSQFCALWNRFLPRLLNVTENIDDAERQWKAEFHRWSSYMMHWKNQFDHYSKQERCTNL

O=C(/C=C/c1ccc(O)c(O)c1)NCCCCCC[P+](c1ccccc1)(c1ccccc1)c1ccccc1 [AntiOXCIN2, reference compound]
ORAC-FL Index [1]: 2.8 ± 0.1 | effect on resazurin reduction [2]: did not markedly affect | IC50 (hMAO-A [3]): > 10 µM | inhibition at 10 µM (hMAO-A [3]): < 50% | IC50 (hMAO-B [4]): > 10 µM | inhibition at 10 µM (hMAO-B [4]): < 50% | IC50 [5]: 0.124 ± 0.007 µM | SI (1): eqBChE selectivity index = IC50(eeAChE)/IC50(eqBChE) [5]: 51 ^d | Ep (redox potential) [6]: 166 mV and 166 ^a mV | CHI [7]: 37.9 | effect on NR uptake [8]: did not markedly affect

O=C(/C=C/c1ccc(O)c(O)c1)NCCCCCCCC[P+](c1ccccc1)(c1ccccc1)c1ccccc1 [AntiOXCIN3, reference compound]
ORAC-FL Index [1]: 2.6 ± 0.1 | effect on resazurin reduction [2]: did not markedly affect | IC50 (hMAO-A [3]): > 10 µM | inhibition at 10 µM (hMAO-A [3]): < 50% | IC50 (hMAO-B [4]): > 10 µM | inhibition at 10 µM (hMAO-B [4]): < 50% | SI (1): eqBChE selectivity index = IC50(eeAChE)/IC50(eqBChE) [9]: 16 | IC50 ([9]; read-out: IC50 eqBChE): 0.325 ± 0.09 µM | Ep (redox potential) [6]: 164 mV and 164 ^a mV | IC50 [10]: 5.08 ± 0.22 µM | CHI [7]: 41.4 | effect on NR uptake [8]: did not markedly affect

c1ccc2[nH]cnc2c1 [Benzimidazole]
CHI0 pH 2.3 [11]: 6.30

CCCC(=O)c1ccccc1 [Butyrophenone]
CHI0 pH 2.3 [11]: 87.3

Cn1c(=O)c2c(ncn2C)n(C)c1=O [Caffeine]
CHI0 pH 2.3 [11]: 23.41

NC(=O)N1c2ccccc2C=Cc2ccccc21 [Carbamazepine]
CHI0 pH 2.3 [11]: 60.42

COc1cc2c(c(OC)c1OC)-c1ccc(OC)c(=O)cc1[C@@H](NC(C)=O)CC2 [Colchicine]
CHI0 pH 2.3 [11]: 43.9

O=C(C=CC=Cc1ccc2c(c1)OCO2)N1CCCCC1 [Compound 1, 1-[5-(1,3-benzodioxol-5-yl)-1-oxo-2,4-pentadienyl]piperidine]
ROO• radical scavenging ([1]; ORAC-FL): unable to scavenge ROO• radicals | IC50 (hMAO-A [12]): > 10 µM | cytotoxic effects [13]: did not exhibit cytotoxic effects | IC50 (hMAO-B [14]): 1.05 ± 0.08 µM | CHI [7]: 73.4

CCCCCCC(=O)c1ccccc1 [Heptanophenone]
CHI0 pH 2.3 [11]: 112.1

c1ccc2[nH]ccc2c1 [Indole]
CHI0 pH 2.3 [11]: 72.1

CC(=O)Nc1ccc(O)cc1 [Paracetamol]
CHI0 pH 2.3 [11]: 18.77

CCC(=O)c1ccccc1 [Propiophenone]
CHI0 pH 2.3 [11]: 77.4

Cn1c(=O)c2[nH]cnc2n(C)c1=O [Theophyline]
CHI0 pH 2.3 [11]: 17.9

CCCCC(=O)c1ccccc1 [Valerophenone]
CHI0 pH 2.3 [11]: 96.4
